Test results taken from PMC9867208, “Lipophilicity and ADMET Analysis of Quinoline-1,4-quinone Hybrids” (Pharmaceutics, 2022).
Like-named read-outs stand apart in the source and are kept apart here.

Tests used:
[1] = Experimental lipophilicity by RP-TLC; details: for φ0 (hydrophobicity index): φ0 = −RM0/b
Source text: The RP-TLC method was used to determine the experimental lipophilicity according to the literature. Modified silica gel was used as the stationary phase and a mixture of tris(hydroxymethyl)aminomethane (TRIS) (0.2 M, pH = 7.4) with acetone as the mobile phase. […] For this reason, an aprotic solvent such as acetone was chosen as the mobile phase.
Spots were visualized in iodine vapor.
The retardation parameter (Rf) was converted to the RM parameter according to Equation (1):(1) RM=log(1/Rf−1)
The RM parameter was calculated for every concentration of acetone and extrapolated to zero concentration of organic solvent in the mobile phase. The chromatographic parameter of lipophilicity (RM0) was calculated using Equation (2):(2) RM=RM0+bC where C is the concentration of acetone in the mobile phase, while b is the slope of the regression plot.
In the next step, the relative lipophilicity parameter RM0 was converted to the absolute lipophilicity parameter logPTLC using the calibration curve.
Lipophilicity correlates with hydrophobicity, which determines the solubility of the compound in water. The hydrophobicity is described by the hydrophobicity index (φ0), which can be calculated according to Equation (4). (4) φ0=−RM0/b

[2] = tested on: NAD(P)H quinone dehydrogenase 1 (NQO1); details: cited from earlier work
[3] = RP-TLC, acetone/TRIS 0.2 M pH 7.4, extrapolated to zero acetone
[4] = from RM0 by calibration curve Equation (3)

SMILES	chromatographic logP [1]	RM0 (chromatographic parameter of lipophilicity) [1, 3]	φ0 (hydrophobicity index) [1]	logNQO1 (enzymatic conversion rate of NQO1) [2]	logPTLC (experimental lipophilicity) [1]	RM0 (chromatographic parameter of lipophilicity) ([1]; pH 7.4)	logPTLC (experimental lipophilicity) [1, 4]
O=C1C(Cl)=C(Oc2cccc3ccc(Cl)nc23)C(=O)c2ncccc21 [Compound 4]	2.55	2.55 ± 0.02	65.88	2.903	–	–	–
Cc1ccc2c(n1)C(=O)C(Oc1cccc3cccnc13)=C(Cl)C2=O [Compound 13]	–	–	66.07	3.178	2.31	2.09 ± 0.02	–
O=C1C(Cl)=C(Oc2cccc3cccnc23)C(=O)c2ncccc21 [Compound 1]	–	–	72.87	3.146	1.65	1.51 ± 0.02	–
Cc1ccc2cccc(OC3=C(Cl)C(=O)c4cccnc4C3=O)c2n1 [Compound 2]	–	–	68.99	3.112	1.84	1.68 ± 0.03	–
Cc1ccc2c(n1)C(=O)C(Oc1cccc3ccc(Cl)nc13)=C(Cl)C2=O [Compound 16]	3.3	2.96 ± 0.01	69.66	2.949	–	–	–
c1ccc2cc3ccccc3cc2c1 [E, anthracene, reference compound]	4.45	3.97	–	–	–	–	–
O=C1C(Cl)=C(Oc2cccc3ccc(N4CCCC4)nc23)C(=O)c2cnccc21 [Compound 11]	3.15	2.83 ± 0.03	74.76	2.330	–	–	–
O=C1C(Cl)=C(Oc2cccc3ccc(N4CCCC4)nc23)C(=O)c2ncccc21 [Compound 5]	2.6	2.35 ± 0.02	74.53	3.034	–	–	–
O=C1C(Cl)=C(Oc2cccc3ccc(Cl)nc23)C(=O)c2ccccc21 [Compound 22]	5.06	4.51 ± 0.02	76.85	3.000	–	–	–
Cc1ccc2cccc(OC3=C(Cl)C(=O)c4ccccc4C3=O)c2n1 [Compound 20]	–	3.34 ± 0.01	79.55	3.100	–	–	3.73
Cc1ccc2c(n1)C(=O)C(Oc1cccc3ccc(C=O)nc13)=C(Cl)C2=O [Compound 15]	2.26	2.05 ± 0.01	71.78	2.672	–	–	–
Clc1ccc(C(c2ccc(Cl)cc2)C(Cl)(Cl)Cl)cc1 [F, dichlorodiphenyltrichloroethane, reference compound]	–	5.60	–	–	–	–	6.31
O=C1C(Cl)=C(Oc2cccc3ccc(Cl)nc23)C(=O)c2cnccc21 [Compound 10]	3.63	3.25 ± 0.01	78.21	2.801	–	–	–
Cc1ccc2c(n1)C(=O)C(Oc1cccc3ccc(N4CCOCC4)nc13)=C(Cl)C2=O [Compound 18]	2.98	2.69 ± 0.03	68.95	2.322	–	–	–
CC(=O)c1ccc(Br)cc1 [C, 4-bromoacetophenone, reference compound]	–	2.33	–	–	–	–	2.58
O=Cc1ccc2cccc(OC3=C(Cl)C(=O)c4cccnc4C3=O)c2n1 [Compound 3]	1.75	1.60 ± 0.03	68.09	3.041	–	–	–
Cc1ccc2cccc(OC3=C(Cl)C(=O)c4ccncc4C3=O)c2n1 [Compound 8]	–	–	74.47	3.058	2.85	2.56 ± 0.02	–
NC(=O)c1ccccc1 [A, benzamide, reference compound]	0.54	0.54	–	–	–	–	–
O=C1C(Cl)=C(Oc2cccc3ccc(N4CCCC4)nc23)C(=O)c2ccccc21 [Compound 23]	4.16	3.72 ± 0.02	81.13	2.549	–	–	–
O=C1C(Cl)=C(Oc2cccc3cccnc23)C(=O)c2ccccc21 [Compound 19]	–	2.90 ± 0.02	78.79	3.108	–	–	3.23
O=C1C(Cl)=C(Oc2cccc3cccnc23)C(=O)c2cnccc21 [Compound 7]	–	–	72.57	3.083	2.40	2.17 ± 0.01	–
O=Cc1ccc2cccc(OC3=C(Cl)C(=O)c4ccccc4C3=O)c2n1 [Compound 21]	4.61	4.11 ± 0.01	80.01	2.740	–	–	–
O=C1C(Cl)=C(Oc2cccc3ccc(N4CCOCC4)nc23)C(=O)c2cnccc21 [Compound 12]	3.68	3.30 ± 0.02	72.22	2.155	–	–	–
O=C1C(Cl)=C(Oc2cccc3ccc(N4CCOCC4)nc23)C(=O)c2ncccc21 [Compound 6]	2.72	2.45 ± 0.04	66.81	2.053	–	–	–
O=C1C(Cl)=C(Oc2cccc3ccc(N4CCOCC4)nc23)C(=O)c2ccccc21 [Compound 24]	4.5	4.01 ± 0.01	75.95	1.940	–	–	–
Cc1ccc2c(n1)C(=O)C(Oc1cccc3ccc(C)nc13)=C(Cl)C2=O [Compound 14]	–	–	69.97	3.157	2.00	1.82 ± 0.02	–
Cc1ccc2c(n1)C(=O)C(Oc1cccc3ccc(N4CCCC4)nc13)=C(Cl)C2=O [Compound 17]	3.79	3.39 ± 0.03	75.30	2.778	–	–	–
O=Cc1ccc2cccc(OC3=C(Cl)C(=O)c4ccncc4C3=O)c2n1 [Compound 9]	2.72	2.45 ± 0.02	73.71	2.502	–	–	–
CC(=O)Nc1ccccc1 [B, acetanilide, reference compound]	–	1.11	–	–	–	–	1.19
